Laboratory results published in patent publication US20250205344A1, “2,4-DIOXOTETRAHYDROPYRIMIDINYL DERATIVES AS DEGRONS IN PROTACS” (GLAXOSMITHKLINE INTELLECTUAL PROPERTY DEVELOPMENT LIMITED, priority 2022, published 2025).

Experiments:
[1] = biological target: T1, IRAK4 (Interleukin 1 Receptor Associated Kinase 4) (Homo sapiens, UniProt Q9NWZ3); assay: IRAK4 Degradation Assay (Nano-Glo HiBiT); type: cell-based; conditions: HiBiT-tagged IRAK4 in HeLa cells, 18 h
T1 construct: the IRAK4 gene was modified, using CRISPR/Cas9 editing, so the expressed IRAK4 protein included an 11 amino acid HiBiT tag; endogenous in cells; host or cells: clonal HeLa line, IRAK4 gene edited by CRISPR/Cas9 (heterozygous)
T1 sequence (Q9NWZ3 1-460): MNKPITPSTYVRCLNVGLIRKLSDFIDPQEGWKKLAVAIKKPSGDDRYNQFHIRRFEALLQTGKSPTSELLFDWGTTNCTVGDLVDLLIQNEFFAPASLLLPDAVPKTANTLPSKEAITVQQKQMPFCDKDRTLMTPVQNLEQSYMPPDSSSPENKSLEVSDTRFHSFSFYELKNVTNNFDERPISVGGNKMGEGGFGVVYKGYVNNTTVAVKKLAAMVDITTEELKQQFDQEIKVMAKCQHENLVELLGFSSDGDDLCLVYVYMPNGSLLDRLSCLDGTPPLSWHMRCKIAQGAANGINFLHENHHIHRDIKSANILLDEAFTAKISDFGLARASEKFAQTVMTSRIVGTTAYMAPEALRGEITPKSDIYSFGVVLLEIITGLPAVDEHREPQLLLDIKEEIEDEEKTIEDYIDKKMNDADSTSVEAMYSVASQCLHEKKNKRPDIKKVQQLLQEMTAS
Excerpt: Degradation of IRAK4 (Interleukin 1 Receptor Associated Kinase 4) protein in Hela cells treated with PROTACs was quantified using the Nano-Glo® HiBiT Lytic Detection System (Promega) in 384 well assay plate format. A clonal HeLa cell line was first established in which the IRAK4 gene was modified, using CRISPR/Cas9 editing, so the expressed IRAK4 protein included an 11 amino acid HiBiT tag at it's amino-terminus. The cell lines were heterozygotic for the HiBiT modification. Cells were cryopreserved in aliquots in 90% foetal bovine serum (FBS), 10% DMSO and stored at −150° C. 10 mM DMSO stock solutions of PROTACs were prepared and diluted across an 11 concentration, 3 fold increment range, and 25 nL dispensed into a white opaque bottomed 384 well assay plate (Thermofisher) using an acoustic ECHO dispenser (Labcyte). […] The intensity of luminescence was measured using a PHERAstar microplate reader (BMG Labtech) and the % IRAK4 protein remaining in each well calculated by normalising the raw luminescence value to the above control wells. Parameters corresponding to the potency and efficacy estimates of the PROTACs were obtained from these normalised luminescence values using software (IDBS ActivityBase). […]

RIPK2 = biological target: T2, RIPK2 (Homo sapiens, UniProt O43353); assay: RIPK2 Degradation Assay (Nano-Glo HiBiT); type: cell-based; conditions: HiBiT-tagged RIPK2 in HEK 293 cells, 18 h
T2 construct: the RIPK2 gene was modified, using CRISPR/Cas9 editing, so the expressed RIPK2 protein included an 11 amino acid HiBiT tag; endogenous in cells; host or cells: clonal HEK 293-derived line, RIPK2 gene edited by CRISPR/Cas9 (heterozygous)
Excerpt: Degradation of RIPK2 protein in human embryonic kidney (HEK 293) cells treated with PROTACs was quantified using the Nano-Glo® HiBiT Lytic Detection System (Promega) in 384 well assay plate format. A clonal HEK 293 derived cell line was first established in which the RIPK2 gene was modified, using CRISPR/Cas9 editing, so the expressed RIPK2 protein included an 11 amino acid HiBiT tag at it's amino-terminus. The cell lines were heterozygotic for the HiBIT modification. Cells were cryopreserved in aliquots in 90% foetal bovine serum (FBS), 10% DMSO and stored at −150° C. 10 mM DMSO stock solutions of PROTACs were prepared and diluted across an 11 concentration, 3 fold increment range, and 25 nL dispensed into a white opaque bottomed 384 well assay plate (Thermofisher) using an acoustic ECHO dispenser (Labcyte). For the assay, a cryopreserved vials of cells was rapidly thawed and suspended in 30 mL of assay medium (FluoroBrite™ DMEM supplemented with 10% heat inactivated FBS, penicillin 50 U/mL and streptomycin 50 ug/mL (Thermofisher)). The cell suspension was centrifuged at 400 g for 5 min and the pellet resuspended in assay medium. 25 μL of cell suspension containing 10,000 cells was dispensed into each well of the assay plate containing the test compounds, which was then incubated for 18 h at 37° C./5% CO2. Control wells were included on each assay plate, with assay medium without cells being the no RIPK2 remaining 100% effect control, and cells treated with DMSO vehicle only, without PROTAC, the 0% effect control. 25 μL of Nano-Glo® HiBiT lysis buffer supplemented with LgBiT protein and Nano-Glo® substrate (Promega) was added to each well and the plate shaken at 500 rpm for 10 min at room temperature. The intensity of luminescence was measured using a PHERAstar microplate reader (BMG Labtech) and the % RIPK2 protein remaining in each well calculated by normalising the raw luminescence value to the above control wells. Parameters corresponding to the potency and efficacy estimates of the PROTACs were obtained from these normalised luminescence values using software (IDBS ActivityBase). These included the DC50 and the Dmax estimates. Two versions of the DC50, called relative DC50 and absolute DC50, were typically generated. These are the inflection point of a fitted 4 parameter sigmoidal response curve and the interpolated concentration of PROTAC corresponding to 50% of the protein being degraded, respectively. The Dmax parameter was the maximum experimentally observed degradation and the asymptote max parameter the fitted response curve asymptote maximum.

T2 sequence (O43353 whole entry): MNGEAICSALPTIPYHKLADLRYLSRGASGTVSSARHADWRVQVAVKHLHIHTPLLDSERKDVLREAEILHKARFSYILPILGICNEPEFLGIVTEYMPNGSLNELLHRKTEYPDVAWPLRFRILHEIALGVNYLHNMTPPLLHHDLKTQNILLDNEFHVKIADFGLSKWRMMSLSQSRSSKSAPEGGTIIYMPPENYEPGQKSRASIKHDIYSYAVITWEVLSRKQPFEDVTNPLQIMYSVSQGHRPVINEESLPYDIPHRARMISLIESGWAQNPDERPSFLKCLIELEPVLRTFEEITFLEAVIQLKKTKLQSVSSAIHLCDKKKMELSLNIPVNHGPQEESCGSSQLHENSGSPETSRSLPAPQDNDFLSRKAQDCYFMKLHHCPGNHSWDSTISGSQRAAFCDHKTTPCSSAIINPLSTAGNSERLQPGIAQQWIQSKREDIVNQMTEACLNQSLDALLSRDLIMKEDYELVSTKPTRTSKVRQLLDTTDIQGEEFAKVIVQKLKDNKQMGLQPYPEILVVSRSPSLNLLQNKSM

| SMILES | mean asymptote max [1] [%] | mean relative pDC50 [1] | Mean asymptote max (%) (RIPK2) | mean relative pDC50 (RIPK2) |
| --- | --- | --- | --- | --- |
| CC(C)n1ccc2c(N3CCC(=O)NC3=O)cc(C(=O)NCCOCCOCCN(C)C(=O)c3ccc(-n4cc(NC(=O)c5coc(-c6ccnc(NCC7CC7)c6)n5)c(C(F)F)n4)cc3)cc21 [Example I1, 2-(2-((Cyclopropylmethyl)amino)pyridin-4-yl)-N-(3-(difluoromethyl)-1-(4-((2-(2-(2-(4-(2,4-dioxotetrahydropyrimidin-1(2H)-yl)-1-isopropyl-1H-indole-6-carboxamido)ethoxy)ethoxy)ethyl)(methyl)carbamoyl)phenyl)-1H-pyrazol-4-yl)oxazole-4-carboxamide] | 96 | 8.1 |  |  |
| CC(C)(C)S(=O)(=O)c1cc2c(Nc3ccc4scnc4c3)ccnc2cc1OCCCCCCCC(=O)N1CCC(n2ccc3c(N4CCC(=O)NC4=O)cccc32)CC1 [Example R1, 1-(1-(1-(8-((4-(Benzo[d]thiazol-5-ylamino)-6-(tert-butylsulfonyl)quinolin-7-yl)oxy)octanoyl)piperidin-4-yl)-1H-indol-4-yl)dihydropyrimidine-2,4(1H,3H)-dione] |  |  | 96 | 8.5 |
| CC(C)(C)S(=O)(=O)c1cc2c(Nc3ccc4scnc4c3)ccnc2cc1OCCCN1CCC(c2cnc(C(=O)N3CCC(n4ccc5c(N6CCC(=O)NC6=O)cccc54)CC3)cn2)CC1.O=CO [Example R2, 1-(1-(1-(5-(1-(3-((4-(Benzo[d]thiazol-5-ylamino)-6-(tert-butylsulfonyl)quinolin-7-yl)oxy)propyl)piperidin-4-yl)pyrazine-2-carbonyl)piperidin-4-yl)-1H-indol-4-yl)dihydropyrimidine-2,4(1H,3H)-dione formate] |  |  | 88 | 8.5 |
| CC(C)n1ccc2c(N3CCC(=O)NC3=O)cc(C(=O)NCCOCCOCCOc3cc4nccc(Nc5ccc6scnc6c5)c4cc3S(=O)(=O)C(C)(C)C)cc21 [Example R3, N-(2-(2-(2-((4-(Benzo[d]thiazol-5-ylamino)-6-(tert-butylsulfonyl)quinolin-7-yl)oxy)ethoxy)ethoxy)ethyl)-4-(2,4-dioxotetrahydropyrimidin-1(2H)-yl)-1-isopropyl-1H-indole-6-carboxamide] |  |  | 92 | 8.3 |
